In assay [1] the target is T1, homomeric cbv1 (rslo1) channels (Rattus norvegicus, UniProt Q62976).
T1 construct: Full-length cDNA coding for cbv1-subunits was cloned from rat cerebral artery myocytes by PCR; expressed in transfected cells; host or cells: Xenopus laevis oocytes (cRNA injection)
Kind of assay: Inside-out patch-clamp of homomeric cbv1 channels expressed in Xenopus oocytes. It counts as cell-based. The note with it: I/O patches, Ca2+i 10 μM, ±20 mV, read-out: Average NPo (% of control). The text has this: cRNA Preparation and Injection into Xenopus Oocytes. Full-length cDNA coding for cbv1-subunits was cloned from rat cerebral artery myocytes by PCR and ligated to the PCR-XL-TOPO cloning vector (Invitrogen Corp., Carlsbad, Calif., United States of America) (Jaggar et al., 2005). cDNA coding for cbv1-subunits was cleaved from the cloning vector by BamHI (Invitrogen Corp., Carlsbad, Calif., United States of America) and XhoI (Promega, Madison, Wis., United States of America) and directly inserted into the pOX vector for expression in Xenopus oocytes. pOX-cbv1 was linearized with NotI (Promega, Madison, Wis., United States of America) and transcribed in vitro using T3 polymerase. […]
(§1) Electrophysiology. […] Single-channel and macroscopic currents were recorded from inside-out (I/O) or outside-out (O/O) patches. […] Nominal free Ca^2+ was calculated with MaxChelator Sliders (C. Patton, Stanford University, California, United States of America) and validated experimentally using Ca^2+-selective electrodes (Corning Incorporated Science Products Division, Corning, N.Y., United States of America). […]
(§2) Currents were recorded using an EPC8 amplifier (HEKA Electronics, Lambrecht/Pfalz, Germany) at 1 kHz using a low-pass, eight-pole Bessel filter 902LPF (Frequency Devices, Haverhill, Mass., United States of America). […]
In general terms: The patch-clamp technique gives a direct electrical read-out from membranes.

Assay [2] has as its target native BK channels in rat cerebral artery myocytes (Rattus norvegicus, UniProt P97678+Q62976). Kind of assay: Inside-out patch-clamp of native BK channels in freshly isolated cerebral artery myocytes. The assay is classed as cell-based. The note with it: I/O patches, free Ca2+i 3 μM. The protocol:
Myocyte Isolation. Basilar and middle cerebral arteries were dissected out from each brain under a stereozoom microscope (Nikon C-PS, Tokio, Japan) and placed into ice-cold “dissociation medium” (DM) (mM): 0.16 CaCl2, 0.49 EDTA, 10 HEPES, 5 KCl, 0.5 KH2PO4, 2 MgCl2, 110 NaCl, 0.5 NaH2PO4, 10 NaHCO3, 0.02 phenol red, 10 taurine, 10 glucose. Each artery was cut into 1-2 mm long rings (˜30 rings/experiment). Rings were put in 3 ml DM containing 0.03% papain, 0.05% bovine serum albumin (BSA) and 0.004% dithiothreitol (DTT) for 15 min at 37° C. in a polypropylene centrifuge tube, and then incubated in a shaking water bath at 37° C. and 60 oscillations/min. for 15 min. The prepartion was then centrifuged several times as described (Liu et al., 2004). […]
as §1, §2

Each structure is given as a SMILES string.

native BK channels in rat cerebral artery myocytes, sequence (Q62976 1-1148 isoform Q62976-2): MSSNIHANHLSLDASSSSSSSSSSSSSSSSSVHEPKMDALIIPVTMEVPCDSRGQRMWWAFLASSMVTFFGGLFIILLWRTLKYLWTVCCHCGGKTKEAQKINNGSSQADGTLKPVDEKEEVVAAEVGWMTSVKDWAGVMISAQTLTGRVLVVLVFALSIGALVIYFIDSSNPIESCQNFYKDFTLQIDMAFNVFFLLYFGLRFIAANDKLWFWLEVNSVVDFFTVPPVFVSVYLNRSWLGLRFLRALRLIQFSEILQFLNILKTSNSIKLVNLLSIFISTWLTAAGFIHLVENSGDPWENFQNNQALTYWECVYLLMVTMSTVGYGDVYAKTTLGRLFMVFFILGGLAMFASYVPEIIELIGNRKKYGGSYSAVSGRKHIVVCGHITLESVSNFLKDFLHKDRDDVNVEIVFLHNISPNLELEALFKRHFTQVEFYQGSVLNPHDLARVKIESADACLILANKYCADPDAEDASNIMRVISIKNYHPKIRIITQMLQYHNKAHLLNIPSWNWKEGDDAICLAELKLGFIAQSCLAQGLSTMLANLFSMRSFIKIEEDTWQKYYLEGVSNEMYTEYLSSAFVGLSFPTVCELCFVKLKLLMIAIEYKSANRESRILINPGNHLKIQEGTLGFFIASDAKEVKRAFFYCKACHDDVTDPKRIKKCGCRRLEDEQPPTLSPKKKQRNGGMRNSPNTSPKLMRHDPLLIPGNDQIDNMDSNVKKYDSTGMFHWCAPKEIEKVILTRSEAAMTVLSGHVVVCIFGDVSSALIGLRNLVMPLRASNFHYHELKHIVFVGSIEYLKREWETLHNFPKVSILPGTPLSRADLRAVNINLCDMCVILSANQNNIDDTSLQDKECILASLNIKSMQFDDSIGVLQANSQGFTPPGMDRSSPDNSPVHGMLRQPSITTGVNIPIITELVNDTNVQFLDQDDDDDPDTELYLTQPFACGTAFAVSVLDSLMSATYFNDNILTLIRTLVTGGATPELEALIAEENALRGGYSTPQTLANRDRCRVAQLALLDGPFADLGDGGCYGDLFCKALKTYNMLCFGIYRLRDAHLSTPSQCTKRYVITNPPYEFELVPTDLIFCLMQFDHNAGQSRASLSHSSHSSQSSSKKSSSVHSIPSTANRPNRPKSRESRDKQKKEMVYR
native BK channels in rat cerebral artery myocytes, sequence (P97678 whole entry): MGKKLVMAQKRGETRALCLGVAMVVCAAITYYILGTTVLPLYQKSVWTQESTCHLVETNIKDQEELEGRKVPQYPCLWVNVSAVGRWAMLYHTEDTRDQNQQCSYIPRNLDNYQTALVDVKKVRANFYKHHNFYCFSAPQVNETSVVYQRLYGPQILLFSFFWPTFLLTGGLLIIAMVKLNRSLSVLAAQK
T1 sequence (Q62976 1-1148 isoform Q62976-2): as the sequence (Q62976 1-1148 isoform Q62976-2) above

As a reminder, the EC50 is the concentration at which the effect is half-maximal. As usually defined, the Emax is the size of the effect at its maximum, as opposed to the concentration needed. Turning to `C[C@H](CCC(=O)O)[C@H]1CC[C@H]2[C@@H]3CC[C@@H]4C[C@H](O)CC[C@]4(C)[C@H]3CC[C@]12C` [LC, 5β-cholanic acid 3α-ol], in assay [1], the remaining activity at 150 µM worked out at 112 ± 13%. Besides, in assay [2] (Vm −40 to −30 mV, read-out: EC50 for increase in NPo), the concentration giving a half-maximal response (EC50) was 46 ± 6 µM. Further, in assay [2] (read-out: NPo at Emax (% of control)), the Emax came to 350%.

The values are drawn from US20080200439A1, “Methods and compositions for modulating BK channel activity and vasodilation” (University of Tennessee Research Foundation, priority 2006, published 2008).
